From paper PMC7587356, “High-Throughput Screening for Inhibitors of the SARS-CoV-2 Protease Using a FRET-Biosensor” (Molecules, 2020)
Counter-ions that a name gives are not always drawn. Like-named read-outs stand apart in the source and are kept apart here.

Target: SARS-CoV-2 3CLpro (Severe acute respiratory syndrome coronavirus 2, UniProt P0DTD1)
Assay: biochemical
Assay type: biochemical
Parameters: Replicate_1 / Replicate_2 / mean / mean (LOPAC_screen_w_protease): unit not given here
Conditions: for inhibition at 5 µM: 4 h
[1] = sheet LOPAC_screen_w_protease, LOPAC1280 at 5 µM, mean of two replicates
[2] = sheet LOPAC_screen_w_protease, LOPAC1280 at 5 µM, replicate 1
[3] = sheet LOPAC_screen_w_protease, LOPAC1280 at 5 µM, replicate 2
[4] = sheet LOPAC_screen_w_protease, LOPAC1280 at 5 µM, mean of two replicates, read-out: mean
[5] = sheet LOPAC_screen_w_protease, LOPAC1280 at 5 µM, replicate 1, read-out: Replicate_1
[6] = sheet LOPAC_screen_w_protease, LOPAC1280 at 5 µM, replicate 2, read-out: Replicate_2
[7] = sheet LOPAC_screen_w_protease, LOPAC1280 primary screen with protease, 5 µM compound, mean of the two replicates, read-out: mean
[8] = sheet LOPAC_screen_w_protease, LOPAC1280 primary screen with protease, 5 µM compound, replicate 1, read-out: Replicate_1
[9] = sheet LOPAC_screen_w_protease, LOPAC1280 primary screen with protease, 5 µM compound, replicate 2, read-out: Replicate_2
[10] = sheet LOPAC_screen_w_protease, primary screen with protease, compound at 5 µM, mean of two replicates
[11] = sheet LOPAC_screen_w_protease, primary screen with protease, compound at 5 µM, replicate 1
[12] = sheet LOPAC_screen_w_protease, primary screen with protease, compound at 5 µM, replicate 2
[13] = sheet LOPAC_screen_w_protease, LOPAC1280 primary screen at 5 µM, with protease, mean of the two replicates
[14] = sheet LOPAC_screen_w_protease, LOPAC1280 primary screen at 5 µM, with protease, replicate 1
[15] = sheet LOPAC_screen_w_protease, LOPAC1280 primary screen at 5 µM, with protease, replicate 2

O=C(O)CCC(C(=O)O)N1C(=O)c2ccccc2C1=O [L-Glutamic acid, N-phthaloyl-]
mean [1]: 1.263 | Replicate_1 [2]: 1.846 | Replicate_2 [3]: 0.6803

Cc1nccc2c1[nH]c1ccccc12 [Harmane]
inhibition at 5 µM [4]: 1.1% | inhibition at 5 µM [5]: 2.71% | inhibition at 5 µM [6]: -0.5%

Cn1ccnc1 [1-Methylimidazole]
inhibition at 5 µM [7]: 4.84% | inhibition at 5 µM [8]: 4.68% | inhibition at 5 µM [9]: 4.99%

CC(=O)Oc1cc(C(C)C)c(OCCN(C)C)cc1C [Moxisylyte hydrochloride]
inhibition at 5 µM (sheet LOPAC_screen_w_protease, primary screen of LOPAC1280 at 5 µM with protease, mean of the two replicates, read-out: mean): 3.55% | inhibition at 5 µM (sheet LOPAC_screen_w_protease, primary screen of LOPAC1280 at 5 µM with protease, replicate 1, read-out: Replicate_1): 4.09% | inhibition at 5 µM (sheet LOPAC_screen_w_protease, primary screen of LOPAC1280 at 5 µM with protease, replicate 2, read-out: Replicate_2): 3.01%

Nc1nc2c(nc(Br)n2[C@@H]2O[C@@H]3COP(=O)([O-])O[C@H]3[C@H]2O)c(=O)[nH]1.[Na+] [8-Bromo-cGMP sodium]
mean [10]: 2.652 | Replicate_1 [11]: 4.1 | Replicate_2 [12]: 1.204

CCCN(CCC)C1Cc2cc(OC)c(OC)cc2C1.O=C(O)/C=C\C(=O)O [U-99194A maleate]
mean (sheet LOPAC_screen_w_protease, primary screen with protease, 5 µM, mean of two replicates): -0.07283 | Replicate_1 (sheet LOPAC_screen_w_protease, primary screen with protease, 5 µM, replicate 1): -1.037 | Replicate_2 (sheet LOPAC_screen_w_protease, primary screen with protease, 5 µM, replicate 2): 0.891

O=C1OC(=O)[C@H]2[C@@H]1[C@@H]1CC[C@H]2O1 [Norcantharidin]
mean [10]: 2.796 | Replicate_1 [11]: 1.684 | Replicate_2 [12]: 3.909

C[C@H]1O[C@@H](n2cc(F)c(=O)[nH]c2=O)[C@H](O)[C@@H]1O [5-fluoro-5'-deoxyuridine]
mean [10]: 2.678 | Replicate_1 [11]: 3.684 | Replicate_2 [12]: 1.673

CCN(c1nc(N)c(C(=O)NC(=N)N)nc1Cl)C(C)C [5-(N-Ethyl-N-isopropyl)amiloride]
inhibition at 5 µM [4]: 1.01% | inhibition at 5 µM [5]: 1.63% | inhibition at 5 µM [6]: 0.388%

CC[C@H](NC(=O)c1c(C)c(-c2ccccc2)nc2ccccc12)c1ccccc1 [SB 222200]
inhibition at 5 µM (LOPAC1280 primary screen with protease, 5 µM compound, replicate 1, read-out: Replicate_1 (LOPAC_screen_w_protease)): 1.71% | inhibition at 5 µM (LOPAC1280 primary screen with protease, 5 µM compound, replicate 2, read-out: Replicate_2 (LOPAC_screen_w_protease)): 1.28% | mean (LOPAC_screen_w_protease) (LOPAC1280 primary screen with protease, 5 µM compound, mean of two replicates): 1.495

Oc1ccc(C2CNCCc3c2cc(O)c(O)c3Cl)cc1 (stereo not drawn) [Fenoldopam bromide]
inhibition at 5 µM (read-out: Replicate_1 (LOPAC screen with protease)): 29.5% | inhibition at 5 µM (read-out: Replicate_2 (LOPAC screen with protease)): 23% | inhibition at 5 µM (read-out: mean (LOPAC screen with protease)): 26.2%

O=C(O)/C=C\C(=O)O.O=C(O)/C=C\C(=O)O.c1cc(CN2CCCCC2)cc(OCCCNc2nc3ccccc3s2)c1 [SKF 95282 dimaleate]
mean [1]: 0.9471 | Replicate_1 [2]: 0.9833 | Replicate_2 [3]: 0.911

Nc1ccc(N2C(=O)c3ccccc3C2=O)c(Cl)c1 [N-(4-Amino-2-chlorophenyl)phthalimide]
mean (sheet LOPAC_screen_w_protease, primary screen with protease, mean of two replicates): 2.38 | Replicate_1 (sheet LOPAC_screen_w_protease, primary screen with protease, replicate 1): 2.0208 | Replicate_2 (sheet LOPAC_screen_w_protease, primary screen with protease, replicate 2): 2.74

N#Cc1cc2nc([O-])c([O-])nc2cc1[N+](=O)[O-].[Na+].[Na+] [CNQX disodium]
mean [13]: 0.7558 | Replicate_1 [14]: 2.8399 | Replicate_2 [15]: -1.328

O=C(O)[C@H]1C[C@H](C(=O)O)N1 (relative stereo) [trans-Azetidine-2,4-dicarboxylic acid]
mean (LOPAC_screen_w_protease) (LOPAC1280 primary screen with protease, 5 µM compound, mean of the two replicates): 2.097 | Replicate_1 (LOPAC_screen_w_protease) (LOPAC1280 primary screen with protease, 5 µM compound, replicate 1): 1.338 | Replicate_2 (LOPAC_screen_w_protease) (LOPAC1280 primary screen with protease, 5 µM compound, replicate 2): 2.855

CC[C@@H]1C(=O)OC[C@@H]1Cc1cncn1C.Cl [(+)-Pilocarpine hydrochloride]
mean [13]: 0.6668 | Replicate_1 [14]: 2.011 | Replicate_2 [15]: -0.6778

NCCCCNCCCN [Spermidine trihydrochloride]
inhibition at 5 µM [7]: 4.14% | inhibition at 5 µM [8]: 3.25% | inhibition at 5 µM [9]: 5.03%

CCn1cc(C(=O)[O-])c(=O)c2ccc(C)nc21.[Na+] [Nalidixic acid sodium]
mean (sheet LOPAC_screen_w_protease, LOPAC1280 primary screen with protease, 5 µM compound, mean of the two replicates): 4.611 | Replicate_1 (sheet LOPAC_screen_w_protease, LOPAC1280 primary screen with protease, 5 µM compound, replicate 1): 4.1091 | Replicate_2 (sheet LOPAC_screen_w_protease, LOPAC1280 primary screen with protease, 5 µM compound, replicate 2): 5.113
